Consider three compounds from US8618074B2, “GPCR enhanced neuroprotection to treat brain injury” (Board of Regents of the University of Texas System, priority 2007, dated 2013).

In one assay the test system is Mouse cortical neurons. The assay is described as follows: Neuronal survival in transwell co-culture with astrocytes under t-buOOH oxidative stress (Hoechst/calcein). The assay is classed as cell-based. To be noted: co-cultures; 10 min pre-treatment 2-MeSADP 2 μM or UTP 50 μM; 4.5 hours of t-buOOH. As to the method:
Primary cultures of astrocytes were prepared as previously published (Lin et al., 2005). C57BL/6 male mice were purchased from the National Institute of Aging and maintained in standard accredited housing conditions at the University of Texas Health Science Center Animal Facility. Animal protocols were approved by our Institutional Animal Care Use Committee. Astrocytes were cultured in DMEM F-12 media (Invitrogen, # 11039-021) supplemented with 2 mM glutamine, nonessential amino acids, 10% fetal calf serum, 100 U/ml penicillin/streptomycin (Cambrex BioScience Walkersville, #17-602E) and 1% fungizone (Invitrogen, #15290-018) at 37° C. in an atmosphere containing 5% CO2. The culture medium was changed every 3-5 days. Confluent cells were gently removed by a trypsin EDTA solution and re-plated on 35 mm glass bottom chambers (Bioptechs #04200415C) prior to imaging experiments 3-4 days later. Cells were maintained in plastic culture flasks until the final re-seeding of cells onto a glass bottom chamber and were passed up to 3 times for astrocyte only experiments. For co-culture experiments with neurons, primary astrocytes were plated directly onto corning transwell-clear permeable supports, which physically separates the two cell-types by ˜1 mm (# 07-200-170, Fisher scientific). Astrocytes were cultured in transwells until they were ˜70% confluent. Mouse cortical neurons (Cambrex Bio Science Walkersville Inc., # M-CX-300) were then cultured onto 6 well mat-tek glass bottom plates and maintained in Neurobasal Medium (Invitrogen, # 21103-049), 2 mM L-Glutamine (Cambrex BioScience Walkersville, #17-605E), 100 U/ml penicillin/streptomycin (Cambrex BioScience Walkersville, #17-602E) and B-27 with (Invitrogen, #17504-044) and without antioxidants (Invitrogen, #10889-038), which controls glia contamination to less than 0.5%. The transwell supports with cultured astrocytes were placed in the neuron seeded glass bottom chambers for four days before imaging and both cell types were then maintained in neuronal media. For neuron only experiments, the astrocytes on the transwell supports were removed prior to treatments and imaging.
Sensitivity of neurons to oxidative stress was assessed by treating cultures with 100 μM tert-butyl hydrogen peroxide (t-BuOOH, Sigma, #B-2633) for 3 hours. Neurons were then stained with Hoechst 33342 (10 μg/ml, Molecular Probes, #H-3570) to label all cell nuclei and calcein AM (2 μM, #C3100, Molecular Probes, #C3100). […] Calcein fluorescence is only observed in live cells that have maintained their plasma membrane integrity. Images were acquired on an inverted Nikon TE300 microscope with a Hamamatsu ORCAER camera and Open lab software (Improvision).
To determine whether P2Y-R enhanced mitochondrial metabolism in astrocytes affected neuronal resistance to oxidative stress, we prepared co-cultures of neurons and astrocytes using corning transwell-clear permeable supports, which physically separates the two cell-types by ˜1 mm (# 07-200-170, Fisher scientific). Primary cultures of astrocytes were directly prepared in transwell supports until they were ˜70% confluent. Mouse cortical neurons were then cultured onto glass bottom mattek plates and maintained in B-27/Neurobasal Medium to control glia contamination to less than 0.5% (Invitrogen). After four days, co-cultures were treated with t-buOOH (100 μM) for 4 hours with and without pre-stimulation of ATP (2 μM, 10 minutes). Cells were then stained with the DNA intercalating dye Hoechst 33342 (10 μg/ml, Molecular Probes, #H-3570) and calcein AM (2 μM, Molecular Probes, #C3100). […] We then tested the neuroprotective affects of isoform specific purinergic ligands 2-MeSADP(P2Y1-R) and UTP(P2Y2-R). FIG. 6A depicts histogram plots of the percentage of neurons alive when cocultured with young or old astrocytes. FIG. 6B depicts histogram plots of the percentage of neurons alive pretreated with either 2-MeSADP (2 μM) or UTP (50 μM) for 10 min. […]

The test system of assay [1] is astrocytes. Briefly: Astrocyte survival under t-buOOH oxidative stress in the absence of neurons. In kind it is cell-based, mouse. As to the method: To determine whether P2Y-R enhanced mitochondrial metabolism in astrocytes affected neuronal resistance to oxidative stress, we prepared co-cultures of neurons and astrocytes using corning transwell-clear permeable supports, which physically separates the two cell-types by ˜1 mm (# 07-200-170, Fisher scientific). Primary cultures of astrocytes were directly prepared in transwell supports until they were ˜70% confluent. Mouse cortical neurons were then cultured onto glass bottom mattek plates and maintained in B-27/Neurobasal Medium to control glia contamination to less than 0.5% (Invitrogen). After four days, co-cultures were treated with t-buOOH (100 μM) for 4 hours with and without pre-stimulation of ATP (2 μM, 10 minutes). Cells were then stained with the DNA intercalating dye Hoechst 33342 (10 μg/ml, Molecular Probes, #H-3570) and calcein AM (2 μM, Molecular Probes, #C3100). […] We then tested the neuroprotective affects of isoform specific purinergic ligands 2-MeSADP(P2Y1-R) and UTP(P2Y2-R). FIG. 6A depicts histogram plots of the percentage of neurons alive when cocultured with young or old astrocytes. FIG. 6B depicts histogram plots of the percentage of neurons alive pretreated with either 2-MeSADP (2 μM) or UTP (50 μM) for 10 min. A ten-minute pre-treatment of astrocytes with either 2-MeSADP (2 μM), or UTP (50 μM) was equally protective against oxidative stress induced cell death. The % neurons alive after 4.5 hours of t-buOOH treatment was 51±4% (n=1664 neurons, pooled from 4 experiments) for untreated controls, 70±2% (n=2541 neurons, pooled from 4 experiments) for 2-MeSADP and 71±3% (n=1189 neurons, pooled from 4 experiments) for UTP treated co-cultures. […] The % astrocytes alive after 4.5 hours of t-buOOH treatment, in the absence of neurons, was 60±4% (n=294 cells) for control, 77±4% (n=294) for 2-MeSADP and 79±3% (n=333) for UTP treated astrocytes.
It should be noted that stimulation of neuroprotective response in astrocytes is not restricted to signaling through P2Y receptors. For example we have shown that administration of the membrane permeable IP3 analog, IP3BM, is capable of protecting astrocytes from oxidative damage. Thus, it appears possible that any stimulus capable of evoking IP3-mediated calcium release in astrocytes is equally suitable for application in the present treatment methods. To test this possibility, astrocyte cultures subjected to oxidative stress were treated with either 2-MeSADP, or the metabotropic glutamate receptor agonist (1 S, 3 R)-1-aminocyclopentane-1,3-dicarboxylic acid (ACPD), or were left untreated.
To directly examine the role of IP3 gated Ca^2+ release in P2Y-R enhanced astrocyte protection, we used a membrane permeant butyryloxymethyl ester of IP3 (IP3-BM). Cultures of astrocytes were exposed to IP3-BM and Ca^2+ levels were assessed using 2-photon imaging of Fura 2. Ca^2+ increases in response to IP3-BM application were easily detected, but they occurred over a much slower time course than those initiated by ATP treatment. This was not unexpected because of the slow process of IP3-BM movement across the lipid bilayer as well as the time needed to cleave the ester and accumulate IP3 in the cell. Because of the slower time course, we pretreated astrocytes for 20 minutes prior to exposing them to the oxidant stress t-BuOOH. […] The protective effect of IP3-BM treatment was blocked by the IP3R inhibitor, XeC. […]

In assay [2] the test system is astrocytes. The assay is described as follows: Intracellular ATP determination (luciferin-luciferase). The assay is classed as cell-based, mouse. Here is the method: Intracellular ATP was measured using a luciferin-luciferase kit (Invitrogen, #22066). Plated astrocytes were trypsinized and washed 3× with PBS buffer (GIBCO #14190). An aliquot of cells was set aside to measure the cell density with a hemocytometer. The cells were then suspended in a lysate buffer (4 mM EDTA and 100 mM Tris, pH 7.75) and immediately heated to 100° C. for 5 minutes to minimize enzymatic changes in ATP levels. The supernatant was collected after a 10,000 g centrifugation for 1 minute and used with the luciferin/luciferase kit according to the manufacturer's instructions. Luminescence was measured with a Synergy™ HT Multi-Detection Microplate Reader (BioTek). ATP levels were normalized by cell density.
Our next approach to investigate the role of mitochondrial metabolism was to directly measure ATP levels in cultures astrocytes using a luciferin-luciferase assay (Invitrogen). Astrocytes were cultured as described above, trypsinized and washed with buffer. The cells were then suspended in a lysate buffer and immediately heated to 100° C. (5 min) to minimize enzymatic changes in ATP levels. After centrifugation, the ATP dependent luminescence of supernatant was measured with a microplate reader (Biotek). FIG. 5C depicts histograms of the direct measurement of intracellular ATP levels relative to untreated cells (control), P2Y-R stimulated (MeADP), then the same measurements in the presence of oligomycin (oligo) or ruthenium 360 (Ru360). We estimated that the resting intracellular ATP concentration in cultured astrocytes was 0.31±0.14 μM ATP/10^4 cells (n=3). […] Finally, we tested whether ruthenium 360 (Ru360; Calbiochem), a polycation that inhibits the electrogenic mitochondrial Ca^2+ uniporter, affected mitochondrial ATP production.

As to `O=c1ccn([C@@H]2O[C@H](COP(=O)(O)OP(=O)(O)OP(=O)(O)O)[C@@H](O)[C@H]2O)c(=O)[nH]1` [UTP, uridine 5′-triphosphate], in the assay on Mouse cortical neurons, the “% neurons alive” value is recorded as 71±3%. Moreover, in the assay with astrocytes [1] (absence of neurons, 4.5 hours of t-buOOH, 2-MeSADP or UTP), the “% astrocytes alive” value is 79±3%.
With ruthenium 360 [Ru360], in the assay on astrocytes [2] (Ru360 1 μM 30 min + 2-MeSADP), the “effect on ability of 2-MeSADP to increase ATP levels” value is “completely blocked”. The “basal ATP levels, % of control values” in the assay with astrocytes [2] (Ru360 1 μM, 30 min) was 60.5%±10.5 % of control.
As for `N[C@@]1(C(=O)O)CC[C@@H](C(=O)O)C1` [ACPD, (1 S, 3 R)-1-aminocyclopentane-1,3-dicarboxylic acid], the “% of astrocytes alive” value with astrocytes [1] (10 minutes pretreatment, 4 hours of t-BuOOH, mean+SD) is 66+9%. Further, the “astrocyte resistance to oxidative stress” value with astrocytes [1] (astrocyte cultures subjected to oxidative stress, versus untreated) was “enhanced”.
